Patent publication US6197225A, “Chromene compound” (Tokuyama Corporation, priority 1997, dated 2001)

Experiments:
[1] = Photochromic properties of cast polymer (2 mm thick) under xenon lamp irradiation for 120 seconds; assay type: physicochemical
Method: 0.04% by weight of the chromene compound obtained in Example 1 was added to 70 parts of 4G, 15 parts of 3G, 10 parts of GMA, 5 parts of HEMA and 1 part of perbutyl ND, and was mixed together to a sufficient degree. The mixture solution was poured into a mold constituted by a glass plate and a gasket of an ethylene/vinyl acetate copolymer, and was cast-polymerized. By using an air furnace, the polymerization was conducted in a manner that the temperature was gradually raised from 30° C. to 90° C. over a period of 18 hours, and was held at 90° C. for 2 hours. After the polymerization, the polymer was taken out from the glass mold.
By using a xenon lamp, L-2480 (300 W) SHL-100, manufactured by Hamamatsu Photonics Co., the obtained polymer (2 mm thick) was irradiated with a beam of an intensity of 365 nm=2.4 mW/cm^2 and 245 nm=24 μW/cm^2 on the surface of the polymer for 120 seconds through an aero-mass filter (manufactured by Corning Co.) at 20° C.±1° C. to develop color and to measure the photochromic properties which were expressed in the following manner.
1 Maximum absorption wavelength (λmax): λmax of the polymer after it has developed color was found by using a spectrophotometer (instantaneous multi-channel photo-detector, MCPD1000) manufactured by Otsuka Denshi Kogyo Co.
2 Initial color ( ε(0)): Absorbency of the polymer in a non-irradiated state at a wavelength same as the maximum absorption wavelength of when it is irradiated with light.
3 Color density (-)=ε(120)-ε(0). ε(120): Absorbency of the polymer at a maximum absorption wavelength after it was irradiated for 120 seconds under the above-mentioned conditions.
4 Color-developing sensitivity (-/min.)=Saturated color density/xenon irradiation time.
Rate of increase in the color density per a unit time until the color density is saturated.
5 Color fading rate [t1/2 (min.)]=time required until the absorbency of the polymer drops down to one-half of [ε(120)-ε(0)] after irradiated for 120 seconds.
(§1) Photochromic polymers were prepared in the same manner as in Example 42 but using the chromene compounds obtained in Examples 2 to 41, and their maximum absorption wavelengths, color densities, fading rates, changes in the coloring degrees and durabilitys were measured.
(§2) For the purpose of comparison, furthermore, the compounds represented by the following formulas (a), (b), (c), (d), (e) and (f) were measured for their maximum absorption wavelengths, color densities, fading rates, changes in the coloring degrees and durabilitys.
(§3) The procedure was carried out in the same manner as in Example 42 but using 100 parts of AC1 and 133 parts of BC1, the sum of the amounts of AC1 and BC1 being 0.04% by weight. The obtained photochromic polymer was measured for its maximum absorption wavelength, initial color, color density, color-developing sensitivity, fading rate, durability and change in the coloring degree.
(§4) The procedure was carried out in the same manner as in Example 83 but using the known chromene compounds shown in Table 6 instead of the chromene compound used in Example 83. […]

[2] = Aging promotion testing: sunlight 30 min / fading one hour cycles, 10 days (durability, coloring degree); assay type: physicochemical
Method: In order to promote the aging, furthermore, the following testing was conducted. That is, the obtained photochromic polymer was irradiated with sunlight for 30 minutes to develop color, and its color was permitted to fade for one hour in the light of a fluorescent lamp. This cycle was repeated three times a day for a total of 10 days.
The photochromic properties before and after aged were evaluated by evaluating the color densities before and after aged. The initial color density (T0) and the color density (T30) ten days after the aging promotion testing were measured, and the durability was expressed as described below.
Furthermore, the coloring degrees of before developing color were measured before and after aged by using a color difference meter (SM-4) manufactured by Suga Shikenki Co.
7 Coloring degree before being aged=YI(0).
8 Change in the coloring degree (ΔYI)=YI(10)-YI(0)
YI(10): coloring degree after aged
as §1, §2, §3, §4
The obtained polymer (2 mm thick) was caused to develop color outdoors, and tones of the developed color were observed by eyes 30 seconds and 15 minutes after it was brought to the outdoors, and uniformity in the step of developing color was evaluated. […] Furthermore, the aging promoting testing was conducted in the same manner as in Example 42 to find a coloring degree (YI(0)) before aged and a change in the coloring degree (ΔY).

[3] = single chromene compound 0.04% by weight in polymer, 20° C., Table 5
[4] = single chromene compound 0.04% by weight in polymer, 120 seconds, 20° C., Table 5
[5] = YI(10)-YI(0), single chromene compound in polymer, 10 days aging, Table 5
[6] = single chromene compound in polymer, 10 days aging, Table 5
[7] = chromene composition, or other chromene C1-C4, 10 days aging, Table 6

SMILES	Fading rate t1/2 [1, 3]	Maximum absorption wavelength λmax [1, 3]	Color density ε(120)-ε(0) [1, 4]	Change in the coloring degree ΔYI [2, 5]	Light resistance (durability) [2, 6]	λ max ([1]; chromene composition, or other chromene C1-C4, 0.04% by weight in polymer, Table 6)	Color density ε(120)-ε(0) ([1]; chromene composition, or other chromene C1-C4, 120 seconds, Table 6)	Initial color ε(0) ([1]; chromene composition, or other chromene C1-C4, non-irradiated, Table 6)	Fading rate t1/2 ([1]; chromene composition, or other chromene C1-C4, Table 6)	Color-developing sensitivity ([1]; saturated color density/xenon irradiation time, Table 6)	Change in the coloring degree ΔYI [2, 7]	Durability [2, 7]
CC(C)(C)c1cc2ccccc2c2c1C=CC1(CC3CCC1C3)O2 (centres unmarked) [Compound 18]	1.3 min	440 nm	0.4	1.8	95%	–	–	–	–	–	–	–
CC(C)(C)c1cc2ccccc2c2c1C=CC1(O2)C2CCCC1CCC2 (centres unmarked) [Compound 2]	1.2 min	443 nm	0.5	1.5	96%	–	–	–	–	–	–	–
COc1ccc(C2(c3ccc(OC)c(F)c3)C=Cc3c(C)cc4ccccc4c3O2)cc1F [Compound 27]	7.3 min	496 nm	1.1	2.3	99%	–	–	–	–	–	–	–
CC(C)(C)c1cc2ccccc2c2c1C=CC1(O2)C2(Cl)CCC1(Cl)CC2 (centres unmarked) [Compound 20]	1.3 min	440 nm	0.4	4.0	80%	–	–	–	–	–	–	–
COc1ccc(C2(c3ccc(OC)c(F)c3)C=Cc3c(C(C)C)cc4ccccc4c3O2)cc1F [Compound 14]	4.3 min	492 nm	0.8	1.3	99%	–	–	–	–	–	–	–
COc1ccc(C2(c3ccco3)C=Cc3c(C)cc4ccccc4c3O2)cc1F (centres unmarked) [Compound 31]	7.0 min	506 nm	1.1	3.0	95%	–	–	–	–	–	–	–
COc1ccc(C2(c3ccc(OC)cc3)C=Cc3c(C)cc4ccc(C)cc4c3O2)cc1 [Compound 36]	6.0 min	510 nm	1.1	2.3	98%	–	–	–	–	–	–	–
Cc1cc2ccccc2c2c1C=CC(c1ccccc1)(c1ccccc1)O2 [c, reference compound]	20 min	484 nm	1.3	2.4	96%	–	–	–	–	–	–	–
CCC(C)c1cc2ccccc2c2c1C=CC(c1ccc(OC)cc1)(c1ccc(OC)c(C#N)c1)O2 (centres unmarked) [Compound 4]	2.4 min	470 nm	0.7	5.0	80%	–	–	–	–	–	–	–
C1=CC2(CC3CCC2C3)Oc2c1ccc1ccccc21 (centres unmarked) [Compound C1, Spiro(norbornane-2,2'-(2H)benzo(h)chromene), reference compound]	–	–	–	–	–	450 nm	1.0	0.01	> 10 min	0.2 -/min.	2.0	90%
CC(C)c1cc2ccccc2c2c1C=CC(c1ccccc1)(c1ccccc1)O2 [Compound 12]	6.8 min	476 nm	0.9	1.0	99%	–	–	–	–	–	–	–
CCC(C)(C)c1cc2ccccc2c2c1C=CC(c1ccc(OC)cc1)(c1ccco1)O2 (centres unmarked) [Compound 3]	3.1 min	488 nm	1.1	2.0	95%	–	–	–	–	–	–	–
CCOC(=O)c1c2c(c3ccccc3c1C)OC1(C=C2)C2CCCC1CCC2 (centres unmarked) [f, reference compound]	4.1 min	446 nm	0.6	6.0	96%	–	–	–	–	–	–	–
COc1ccc2c3c(c(C(C)Cc4ccccc4)cc2c1)C=CC(c1ccccc1)(c1cccn1C)O3 (centres unmarked) [Compound 8]	2.2 min	490 nm	0.7	2.0	92%	–	–	–	–	–	–	–
CC(C)(C)c1cc2ccccc2c2c1C=CC1(O2)C2(Cl)CCCC1(Cl)CCC2 (centres unmarked) [Compound 22]	1.4 min	444 nm	0.5	3.0	80%	–	–	–	–	–	–	–
CCC(C)c1cc2ccccc2c2c1C=CC1(O2)C2CCCC1CCC2 (centres unmarked) [Compound 23]	1.0 min	450 nm	0.5	2.0	92%	–	–	–	–	–	–	–
COc1ccc(C2(c3ccc(OC)c(F)c3)C=Cc3c(C)cc4ccccc4c3O2)cc1 (centres unmarked) [Compound 34]	6.5 min	502 nm	1.1	2.4	97%	–	–	–	–	–	–	–
CCOc1ccc(C2(c3ccc(OC)cc3)C=Cc3c(CC)cc4c(Cc5ccccc5)cccc4c3O2)cc1 (centres unmarked) [Compound 39]	5.8 min	524 nm	1.0	2.5	96%	–	–	–	–	–	–	–
COc1ccc(C2(c3ccc(OC)cc3)C=Cc3ccc4ccccc4c3O2)cc1 [a, reference compound]	> 30 min	492 nm	1.3	2.5	97%	–	–	–	–	–	–	–
COc1ccc(C2(c3ccc(OC)cc3)C=Cc3c(C)cc4cc(-c5ccccc5)ccc4c3O2)cc1 [Compound 37]	7.2 min	512 nm	1.3	2.5	97%	–	–	–	–	–	–	–
CC(C)c1cc2ccccc2c2c1C=CC1(O2)C2CCCC1CCC2 (centres unmarked) [Compound 21]	1.0 min	449 nm	0.5	2.0	97%	–	–	–	–	–	–	–
CC(C)(C)c1cc2ccccc2c2c1C=CC(c1ccccc1)(c1cccs1)O2 (centres unmarked) [Compound 6]	2.8 min	480 nm	0.8	1.8	97%	–	–	–	–	–	–	–
CC(C)c1cc2ccccc2c2c1C=CC(c1ccccc1)(c1ccc3ccccc3c1)O2 (centres unmarked) [Compound 7]	3.5 min	468 nm	0.8	1.7	96%	–	–	–	–	–	–	–
COc1ccc(C2(c3ccc(OC(F)(F)F)cc3)C=Cc3c(C(C)C)cc4ccccc4c3O2)cc1 (centres unmarked) [Compound 15]	4.8 min	486 nm	0.9	1.2	96%	–	–	–	–	–	–	–
